Experiments:
Type in all cases: functional, cell-based
Parameters in all cases: recommended concentration 100 nM
[1] = molecular target: Centromere-associated protein E (Homo sapiens) (UniProt Q02224); assay: Affinity Phenotypic Cellular interaction: (Cell-growth inhibition assays (growth inhibitory effect colon cancer cell line A549)) EUB0000734a CENPE; details: Affinity Phenotypic Cellular Source Knowledge https://pubmed.ncbi.nlm.nih.gov/20167803/
[2] = molecular target: Centromere-associated protein E (Homo sapiens) (UniProt Q02224); assay: Affinity Phenotypic Cellular interaction: (Cell-growth inhibition assays (growth inhibitory effect colon cancer cell line BHT-101)) EUB0000734a CENPE; details: Affinity Phenotypic Cellular Source Knowledge https://pubmed.ncbi.nlm.nih.gov/20167803/
[3] = molecular target: Centromere-associated protein E (Homo sapiens) (UniProt Q02224); assay: Affinity Phenotypic Cellular interaction: (Cell-growth inhibition assays (growth inhibitory effect colon cancer cell line BT-20)) EUB0000734a CENPE; details: Affinity Phenotypic Cellular Source Knowledge https://pubmed.ncbi.nlm.nih.gov/20167803/
[4] = molecular target: Centromere-associated protein E (Homo sapiens) (UniProt Q02224); assay: Affinity Phenotypic Cellular interaction: (Cell-growth inhibition assays (growth inhibitory effect colon cancer cell line Caki-2)) EUB0000734a CENPE; details: Affinity Phenotypic Cellular Source Knowledge https://pubmed.ncbi.nlm.nih.gov/20167803/
[5] = molecular target: Centromere-associated protein E (Homo sapiens) (UniProt Q02224); assay: Affinity Phenotypic Cellular interaction: (Cell-growth inhibition assays (growth inhibitory effect colon cancer cell line COLO 201)) EUB0000734a CENPE; details: Affinity Phenotypic Cellular Source Knowledge https://pubmed.ncbi.nlm.nih.gov/20167803/
[6] = molecular target: Centromere-associated protein E (Homo sapiens) (UniProt Q02224); assay: Affinity Phenotypic Cellular interaction: (Cell-growth inhibition assays (growth inhibitory effect colon cancer cell line COLO-320DM)) EUB0000734a CENPE; details: Affinity Phenotypic Cellular Source Knowledge https://pubmed.ncbi.nlm.nih.gov/20167803/
[7] = molecular target: Centromere-associated protein E (Homo sapiens) (UniProt Q02224); assay: Affinity Phenotypic Cellular interaction: (Cell-growth inhibition assays (growth inhibitory effect colon cancer cell line Detroit562)) EUB0000734a CENPE; details: Detroit 562, Affinity Phenotypic Cellular Source Knowledge https://pubmed.ncbi.nlm.nih.gov/20167803/
[8] = molecular target: Centromere-associated protein E (Homo sapiens) (UniProt Q02224); assay: Affinity Phenotypic Cellular interaction: (Cell-growth inhibition assays (growth inhibitory effect colon cancer cell line ES-2)) EUB0000734a CENPE; details: Affinity Phenotypic Cellular Source Knowledge https://pubmed.ncbi.nlm.nih.gov/20167803/
[9] = molecular target: Centromere-associated protein E (Homo sapiens) (UniProt Q02224); assay: Affinity Phenotypic Cellular interaction: (Cell-growth inhibition assays (growth inhibitory effect colon cancer cell line H4)) EUB0000734a CENPE; details: Affinity Phenotypic Cellular Source Knowledge https://pubmed.ncbi.nlm.nih.gov/20167803/
[10] = molecular target: Centromere-associated protein E (Homo sapiens) (UniProt Q02224); assay: Affinity Phenotypic Cellular interaction: (Cell-growth inhibition assays (growth inhibitory effect colon cancer cell line HCT-15)) EUB0000734a CENPE; details: Affinity Phenotypic Cellular Source Knowledge https://pubmed.ncbi.nlm.nih.gov/20167803/
[11] = molecular target: Centromere-associated protein E (Homo sapiens) (UniProt Q02224); assay: Affinity Phenotypic Cellular interaction: (Cell-growth inhibition assays (growth inhibitory effect colon cancer cell line HEC-1-A)) EUB0000734a CENPE; details: Affinity Phenotypic Cellular Source Knowledge https://pubmed.ncbi.nlm.nih.gov/20167803/
[12] = molecular target: Centromere-associated protein E (Homo sapiens) (UniProt Q02224); assay: Affinity Phenotypic Cellular interaction: (Cell-growth inhibition assays (growth inhibitory effect colon cancer cell line HeLa)) EUB0000734a CENPE; details: Affinity Phenotypic Cellular Source Knowledge https://pubmed.ncbi.nlm.nih.gov/20167803/
[13] = molecular target: Centromere-associated protein E (Homo sapiens) (UniProt Q02224); assay: Affinity Phenotypic Cellular interaction: (Cell-growth inhibition assays (growth inhibitory effect colon cancer cell line HOS)) EUB0000734a CENPE; details: Affinity Phenotypic Cellular Source Knowledge https://pubmed.ncbi.nlm.nih.gov/20167803/
[14] = molecular target: Centromere-associated protein E (Homo sapiens) (UniProt Q02224); assay: Affinity Phenotypic Cellular interaction: (Cell-growth inhibition assays (growth inhibitory effect colon cancer cell line HT-29)) EUB0000734a CENPE; details: Affinity Phenotypic Cellular Source Knowledge https://pubmed.ncbi.nlm.nih.gov/20167803/
[15] = molecular target: Centromere-associated protein E (Homo sapiens) (UniProt Q02224); assay: Affinity Phenotypic Cellular interaction: (Cell-growth inhibition assays (growth inhibitory effect colon cancer cell line K-562)) EUB0000734a CENPE; details: K562, Affinity Phenotypic Cellular Source Knowledge https://pubmed.ncbi.nlm.nih.gov/20167803/
[16] = molecular target: Centromere-associated protein E (Homo sapiens) (UniProt Q02224); assay: Affinity Phenotypic Cellular interaction: (Cell-growth inhibition assays (growth inhibitory effect colon cancer cell line LNCaP)) EUB0000734a CENPE; details: Affinity Phenotypic Cellular Source Knowledge https://pubmed.ncbi.nlm.nih.gov/20167803/
[17] = molecular target: Centromere-associated protein E (Homo sapiens) (UniProt Q02224); assay: Affinity Phenotypic Cellular interaction: (Cell-growth inhibition assays (growth inhibitory effect colon cancer cell line MIA PaCa-2)) EUB0000734a CENPE; details: Affinity Phenotypic Cellular Source Knowledge https://pubmed.ncbi.nlm.nih.gov/20167803/
[18] = molecular target: Centromere-associated protein E (Homo sapiens) (UniProt Q02224); assay: Affinity Phenotypic Cellular interaction: (Cell-growth inhibition assays (growth inhibitory effect colon cancer cell line MV-4-11)) EUB0000734a CENPE; details: MV4-11, Affinity Phenotypic Cellular Source Knowledge https://pubmed.ncbi.nlm.nih.gov/20167803/
[19] = molecular target: Centromere-associated protein E (Homo sapiens) (UniProt Q02224); assay: Affinity Phenotypic Cellular interaction: (Cell-growth inhibition assays (growth inhibitory effect lung cancer cell line MV522)) EUB0000734a CENPE; details: MV-522, Affinity Phenotypic Cellular Source Knowledge https://pubmed.ncbi.nlm.nih.gov/20167803/
[20] = molecular target: Centromere-associated protein E (Homo sapiens) (UniProt Q02224); assay: Affinity Phenotypic Cellular interaction: (Cell-growth inhibition assays (growth inhibitory effect colon cancer cell line NCI-H2171)) EUB0000734a CENPE; details: Affinity Phenotypic Cellular Source Knowledge https://pubmed.ncbi.nlm.nih.gov/20167803/
[21] = molecular target: Centromere-associated protein E (Homo sapiens) (UniProt Q02224); assay: Affinity Phenotypic Cellular interaction: (Cell-growth inhibition assays (growth inhibitory effect colon cancer cell line NCI-H292)) EUB0000734a CENPE; details: Affinity Phenotypic Cellular Source Knowledge https://pubmed.ncbi.nlm.nih.gov/20167803/
[22] = molecular target: Centromere-associated protein E (Homo sapiens) (UniProt Q02224); assay: Affinity Phenotypic Cellular interaction: (Cell-growth inhibition assays (growth inhibitory effect colon cancer cell line RD)) EUB0000734a CENPE; details: Affinity Phenotypic Cellular Source Knowledge https://pubmed.ncbi.nlm.nih.gov/20167803/
[23] = molecular target: Centromere-associated protein E (Homo sapiens) (UniProt Q02224); assay: Affinity Phenotypic Cellular interaction: (Cell-growth inhibition assays (growth inhibitory effect colon cancer cell line RL)) EUB0000734a CENPE; details: Affinity Phenotypic Cellular Source Knowledge https://pubmed.ncbi.nlm.nih.gov/20167803/
[24] = molecular target: Centromere-associated protein E (Homo sapiens) (UniProt Q02224); assay: Affinity Phenotypic Cellular interaction: (Cell-growth inhibition assays (growth inhibitory effect colon cancer cell line RPMI6666)) EUB0000734a CENPE; details: RPMI-6666, Affinity Phenotypic Cellular Source Knowledge https://pubmed.ncbi.nlm.nih.gov/20167803/
[25] = molecular target: Centromere-associated protein E (Homo sapiens) (UniProt Q02224); assay: Affinity Phenotypic Cellular interaction: (Cell-growth inhibition assays (growth inhibitory effect colon cancer cell line SCC-4)) EUB0000734a CENPE; details: Affinity Phenotypic Cellular Source Knowledge https://pubmed.ncbi.nlm.nih.gov/20167803/
[26] = molecular target: Centromere-associated protein E (Homo sapiens) (UniProt Q02224); assay: Affinity Phenotypic Cellular interaction: (Cell-growth inhibition assays (growth inhibitory effect colon cancer cell line SF-268)) EUB0000734a CENPE; details: Affinity Phenotypic Cellular Source Knowledge https://pubmed.ncbi.nlm.nih.gov/20167803/
[27] = molecular target: Centromere-associated protein E (Homo sapiens) (UniProt Q02224); assay: Affinity Phenotypic Cellular interaction: (Cell-growth inhibition assays (growth inhibitory effect colon cancer cell line SF-539)) EUB0000734a CENPE; details: Affinity Phenotypic Cellular Source Knowledge https://pubmed.ncbi.nlm.nih.gov/20167803/
[28] = molecular target: Centromere-associated protein E (Homo sapiens) (UniProt Q02224); assay: Affinity Phenotypic Cellular interaction: (Cell-growth inhibition assays (growth inhibitory effect colon cancer cell line SNU-449)) EUB0000734a CENPE; details: Affinity Phenotypic Cellular Source Knowledge https://pubmed.ncbi.nlm.nih.gov/20167803/
[29] = molecular target: Centromere-associated protein E (Homo sapiens) (UniProt Q02224); assay: Affinity Phenotypic Cellular interaction: (Cell-growth inhibition assays (growth inhibitory effect colon cancer cell line SNU-475)) EUB0000734a CENPE; details: Affinity Phenotypic Cellular Source Knowledge https://pubmed.ncbi.nlm.nih.gov/20167803/
[30] = molecular target: Centromere-associated protein E (Homo sapiens) (UniProt Q02224); assay: Affinity Phenotypic Cellular interaction: (Cell-growth inhibition assays (growth inhibitory effect colon cancer cell line SW1463)) EUB0000734a CENPE; details: Affinity Phenotypic Cellular Source Knowledge https://pubmed.ncbi.nlm.nih.gov/20167803/
[31] = molecular target: Centromere-associated protein E (Homo sapiens) (UniProt Q02224); assay: Affinity Phenotypic Cellular interaction: (Cell-growth inhibition assays (growth inhibitory effect colon cancer cell line SW756)) EUB0000734a CENPE; details: Affinity Phenotypic Cellular Source Knowledge https://pubmed.ncbi.nlm.nih.gov/20167803/
[32] = molecular target: Centromere-associated protein E (Homo sapiens) (UniProt Q02224); assay: Affinity Phenotypic Cellular interaction: (Cell-growth inhibition assays (growth inhibitory effect colon cancer cell line SW837)) EUB0000734a CENPE; details: Affinity Phenotypic Cellular Source Knowledge https://pubmed.ncbi.nlm.nih.gov/20167803/
[33] = molecular target: Centromere-associated protein E (Homo sapiens) (UniProt Q02224); assay: Affinity Phenotypic Cellular interaction: (Cell-growth inhibition assays (growth inhibitory effect colon cancer cell line SW-872)) EUB0000734a CENPE; details: SW872, Affinity Phenotypic Cellular Source Knowledge https://pubmed.ncbi.nlm.nih.gov/20167803/
[34] = molecular target: Centromere-associated protein E (Homo sapiens) (UniProt Q02224); assay: Affinity Phenotypic Cellular interaction: (Cell-growth inhibition assays (growth inhibitory effect colon cancer cell line T24)) EUB0000734a CENPE; details: T-24, Affinity Phenotypic Cellular Source Knowledge https://pubmed.ncbi.nlm.nih.gov/20167803/
[35] = molecular target: Centromere-associated protein E (Homo sapiens) (UniProt Q02224); assay: Affinity Phenotypic Cellular interaction: (Cell-growth inhibition assays (growth inhibitory effect colon cancer cell line TK-10)) EUB0000734a CENPE; details: Affinity Phenotypic Cellular Source Knowledge https://pubmed.ncbi.nlm.nih.gov/20167803/
[36] = molecular target: Centromere-associated protein E (Homo sapiens) (UniProt Q02224); assay: Affinity Phenotypic Cellular interaction: (Cell-growth inhibition assays (growth inhibitory effect colon cancer cell line UACC-257)) EUB0000734a CENPE; details: Affinity Phenotypic Cellular Source Knowledge https://pubmed.ncbi.nlm.nih.gov/20167803/
[37] = molecular target: Centromere-associated protein E (Homo sapiens) (UniProt Q02224); assay: Affinity Phenotypic Cellular interaction: (Cell-growth inhibition assays (growth inhibitory effect colon cancer cell line YAPC)) EUB0000734a CENPE; details: Affinity Phenotypic Cellular Source Knowledge https://pubmed.ncbi.nlm.nih.gov/20167803/

Chain of Centromere-associated protein E (Homo sapiens) (Q02224 whole entry): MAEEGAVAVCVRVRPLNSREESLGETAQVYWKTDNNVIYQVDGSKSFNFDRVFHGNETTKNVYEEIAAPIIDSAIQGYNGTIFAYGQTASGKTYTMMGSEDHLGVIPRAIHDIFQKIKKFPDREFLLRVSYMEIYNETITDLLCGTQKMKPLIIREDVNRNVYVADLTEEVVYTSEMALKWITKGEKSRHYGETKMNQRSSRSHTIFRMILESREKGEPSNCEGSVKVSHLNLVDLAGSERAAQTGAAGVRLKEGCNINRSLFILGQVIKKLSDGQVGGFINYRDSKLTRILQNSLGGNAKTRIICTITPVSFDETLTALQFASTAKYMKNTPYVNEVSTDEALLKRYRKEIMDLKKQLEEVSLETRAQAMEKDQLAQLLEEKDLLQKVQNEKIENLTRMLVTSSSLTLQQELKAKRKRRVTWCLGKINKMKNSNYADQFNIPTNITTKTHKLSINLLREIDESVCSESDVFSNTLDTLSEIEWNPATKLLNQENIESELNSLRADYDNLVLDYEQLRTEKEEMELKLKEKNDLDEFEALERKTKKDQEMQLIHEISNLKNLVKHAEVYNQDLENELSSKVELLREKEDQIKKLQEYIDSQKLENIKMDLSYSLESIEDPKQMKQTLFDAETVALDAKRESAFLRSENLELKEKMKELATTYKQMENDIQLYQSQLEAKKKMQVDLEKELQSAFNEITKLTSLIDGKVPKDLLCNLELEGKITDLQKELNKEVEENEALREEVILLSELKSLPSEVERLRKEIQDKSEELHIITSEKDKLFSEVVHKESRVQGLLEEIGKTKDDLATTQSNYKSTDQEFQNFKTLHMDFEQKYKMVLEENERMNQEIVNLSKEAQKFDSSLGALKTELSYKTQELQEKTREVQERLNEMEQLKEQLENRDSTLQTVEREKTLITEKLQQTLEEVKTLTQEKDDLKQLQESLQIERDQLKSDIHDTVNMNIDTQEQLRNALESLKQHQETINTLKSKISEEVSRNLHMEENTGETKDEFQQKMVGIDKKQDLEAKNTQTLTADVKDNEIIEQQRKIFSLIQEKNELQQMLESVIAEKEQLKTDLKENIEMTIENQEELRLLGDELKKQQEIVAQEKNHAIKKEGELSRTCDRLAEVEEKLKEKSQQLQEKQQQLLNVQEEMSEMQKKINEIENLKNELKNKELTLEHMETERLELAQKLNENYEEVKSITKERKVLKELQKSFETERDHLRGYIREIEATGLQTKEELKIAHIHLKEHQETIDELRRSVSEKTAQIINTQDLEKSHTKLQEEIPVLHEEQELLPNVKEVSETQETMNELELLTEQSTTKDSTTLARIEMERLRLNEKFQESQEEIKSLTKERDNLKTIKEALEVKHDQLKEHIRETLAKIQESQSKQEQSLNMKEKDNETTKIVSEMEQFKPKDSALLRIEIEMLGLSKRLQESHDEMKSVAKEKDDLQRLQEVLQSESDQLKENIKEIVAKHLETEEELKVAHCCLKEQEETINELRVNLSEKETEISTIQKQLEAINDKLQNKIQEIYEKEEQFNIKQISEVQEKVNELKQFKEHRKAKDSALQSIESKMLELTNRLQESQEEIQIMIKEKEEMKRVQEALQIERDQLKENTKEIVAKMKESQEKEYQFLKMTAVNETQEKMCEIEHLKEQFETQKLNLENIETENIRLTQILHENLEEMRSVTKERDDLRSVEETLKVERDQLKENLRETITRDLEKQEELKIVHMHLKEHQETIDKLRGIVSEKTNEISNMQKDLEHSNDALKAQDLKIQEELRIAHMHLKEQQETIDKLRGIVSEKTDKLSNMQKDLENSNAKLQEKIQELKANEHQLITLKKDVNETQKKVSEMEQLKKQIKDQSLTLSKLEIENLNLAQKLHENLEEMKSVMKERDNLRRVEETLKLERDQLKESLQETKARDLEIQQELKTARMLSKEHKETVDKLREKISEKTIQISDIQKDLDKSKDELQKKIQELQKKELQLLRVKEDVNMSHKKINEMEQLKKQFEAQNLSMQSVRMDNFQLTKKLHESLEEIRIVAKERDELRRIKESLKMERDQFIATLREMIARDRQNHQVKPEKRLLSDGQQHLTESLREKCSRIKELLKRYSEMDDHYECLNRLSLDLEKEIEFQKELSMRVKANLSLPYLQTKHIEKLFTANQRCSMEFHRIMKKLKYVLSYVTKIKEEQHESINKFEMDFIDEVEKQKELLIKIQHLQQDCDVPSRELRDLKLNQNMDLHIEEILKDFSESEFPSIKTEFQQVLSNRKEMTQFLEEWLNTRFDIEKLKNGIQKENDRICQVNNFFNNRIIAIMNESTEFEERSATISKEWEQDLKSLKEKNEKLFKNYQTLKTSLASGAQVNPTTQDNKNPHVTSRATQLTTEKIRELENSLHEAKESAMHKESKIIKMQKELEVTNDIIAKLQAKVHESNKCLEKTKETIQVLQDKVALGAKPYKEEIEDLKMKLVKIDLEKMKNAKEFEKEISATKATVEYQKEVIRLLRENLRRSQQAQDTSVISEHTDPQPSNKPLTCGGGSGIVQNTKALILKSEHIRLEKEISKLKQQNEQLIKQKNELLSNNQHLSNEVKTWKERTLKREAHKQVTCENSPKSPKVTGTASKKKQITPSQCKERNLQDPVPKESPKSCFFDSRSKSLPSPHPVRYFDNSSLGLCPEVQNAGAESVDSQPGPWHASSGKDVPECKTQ

In the case of CC(C)Oc1ccc(C(=O)N[C@H](CNC(=O)CN(C)C)Cc2ccc(-c3cn4cccc([C@H](C)O)c4n3)cc2)cc1Cl, the GIC50 [1] is reported as 21 nM, the GIC50 [2] is reported as 100 nM and the GIC50 [3] is reported as 32 nM. The GIC50 [4] was 25 nM, the GIC50 [5] was 24 nM and the GIC50 [6] was 306 nM. It also gave a GIC50 [7] of 35 nM, a GIC50 [8] of 30 nM and a GIC50 [9] of 31 nM. For the same molecule, the GIC50 [10] was 151 nM, the GIC50 [11] was 50 nM and the GIC50 [12] was 20 nM. For the same molecule, the GIC50 [13] was 27 nM, the GIC50 [14] was 14 nM and the GIC50 [15] was 25 nM. The GIC50 [16] was 76 nM, the GIC50 [17] was 23 nM and the GIC50 [18] was 29 nM. It also gave a GIC50 [19] of 48 nM, a GIC50 [20] of 24 nM and a GIC50 [21] of 31 nM. The GIC50 [22] was 28 nM, the GIC50 [23] was 37 nM and the GIC50 [24] was 88 nM. For the same molecule, the GIC50 [25] was 28 nM, the GIC50 [26] was 26 nM and the GIC50 [27] was 28 nM. The GIC50 [28] was 236 nM, the GIC50 [29] was 26 nM and the GIC50 [30] was 31 nM. It also gave a GIC50 [31] of 35 nM, a GIC50 [32] of 33 nM and a GIC50 [33] of 37 nM. The GIC50 [34] was 45 nM, the GIC50 [35] was 49 nM and the GIC50 [36] was 32 nM. It also gave a GIC50 [37] of 59 nM.
